From patent publication US20120196751A1, “ANTHRAQUINONE CONTAINING PREPARATIONS/LIGNIN FORMULATIONS” (MARRONE BIO INNOVATIONS, INC., priority 2011, published 2012)

Test system: Phytophthora capsici
Experiment: Efficacy of WSP and WDG in controlling Phytophthora capsici leaf blight on tomato plants (Example VI)
Assay type: in vivo
Conditions: 1.24 g/L; tomato cv Roma; rated 7 days post inoculation
Protocol: Reynoutria sachalinensis extract was formulated as WSP and as WDG. Both formulations were evaluated for their efficacy in controlling Phytophthora leaf blight on tomato. The cv “Roma” was planted in greenhouse till two true leaf stage. The isolate of P. capsici was grown on lima bean media (150 g lima bean was autoclaved in 500 ml water at 121° C. for 0.5 h and filtered through two layers of cheese cloth to remove seed coats. 20 g of agar was added to the filtrate and increase the volume to 1000 ml. The media was autoclaved at 121° C. for 15 min) for 7 days and the sporangia were washed off with sterile water. The sporangia suspension was incubated at room temperature (about 25° C.) for 1-2 h to release zoospores. The suspension was adjusted to 1.0×10^5 spores/ml. There were three single plant replications per treatments. For each treatment, 3 ml treatment/plant was applied with hand held sprayer. After the treatments dried up in a container for incubation, 10 ml of spore suspension was applied uniformly onto all the plants. The container was sealed to maintain high moisture and the plants were incubated at 25° C. in darkness for 3 days. Disease was rated 7 days post inoculation.

Compound: COCC(=O)N(c1c(C)cccc1C)[C@H](C)C(=O)OC [mefenoxam (Ridomil), mefenoxam]
- % Control: 95.9%
- Severity (%, mean): 2.3%
